The nature of series [1]: Screening of CDs and CD derivatives for ability to dissolve cholesterol in water (HPLC). Format: physicochemical. As to conditions: for Concentrations of Cholesterol in CDs Solution: 5 days shaking at ambient; for Ability to dissolve cholesterol in water: CD 1, 10, 20% (w/v). The procedure:
Purpose: To determine the level of cholesterol that can be dissolved in water when 10 different CDs and their derivatives were added at three concentrations.
All CD solutions were prepared with starting 20% (w/v) solutions by accurately adding about 800 mg CDs in 4 milliliter water, 1% and 10% were diluted from this 20% solution to 2 mL for each sample preparation experiment.
Cholesterol was added accurately to all CD water solutions at about 40 mg/mL or about 80 mg per 2 mL. This amount of cholesterol was enough to fully saturate the CD solutions with white settlements or floating or both. All samples were conditioned at ambient by shaking using a rotator for 5 days.
After the equilibration with shaking for 5 days at ambient, the clear or semi-clear portion was filtered with 0.2 μm filter. 50 μL of the filtered solution was diluted with 450 μL methanol (10 X) for HPLC analysis. NOVAPAK phenyl column (7.6 cm by 3.9 mm I.D.) was used with a mobile phase of acetonitrile: water (70:30) at a flow rate of 0.5 ml/min and detection at UV at 210 nm.

The conditions of series [2]: cited from earlier work; for Ability to form soluble complex with cholesterol in aqueous solution: 37° C., CDs 1.0 × 10^−2 M; for Increase in Absorbance (600 nm) Due to Cholesterol Dissolved by CDs: Aqueous solution at 37° C., concentration of CDs 1.0 × 10^−2 M.
Another series concerns pterygium patients. Briefly: Safety (adverse events) of 10% HP-β-CD vehicle in the Phase 2 pterygium clinical trial. As to conditions: 10% as vehicle in the Phase 2 pterygium clinical trial.
For series [3], the system named is Patients with Primary or Recurrent Pterygium. Briefly: Phase 2a clinical trial in pterygium patients: Pterygium Symptom and Life Quality (PSLQ) questionnaire scores. Format: in vivo, human. An excerpt:
2-HP-β-CD Formulation I was used as vehicle.
A trend of effects also remained after the stop of treatment at weeks 8, 16, and 24. The other questions didn't generate statistically significant effects.
These ocular symptoms are often observed in MGD patients. Scores of these symptoms were graded by patients as part of PSLQ questionnaires.

Setting [4] is: Baseline, Modified Intent-to-Treat Population, N = 23.
[5] abbreviates: Week 2, 10% (w/w) TID for 4 weeks, N = 23.
The mark [6] stands for this setting: Week 4, 10% (w/w) TID for 4 weeks, N = 23.
The mark [7] stands for this setting: Week 8 (after treatment period), N = 23.
[8] abbreviates: Week 16 (after treatment period), N = 23.
Setting [9] is: Week 24 (after treatment period), N = 23.

Data on 11 compounds can be found in patent US20220362282A1, “COMPOSITIONS AND METHODS FOR TREATING EYE DISEASES” (ADS THERAPEUTICS LLC, priority 2019, published 2022).

Turning to “2-Hydroxypropyl-beta-cyclodextrin [2-HP-β-CD]”, the “Concentrations of Cholesterol in CDs Solution” value (shortened to “Concentrations of Cholesterol”) in series [1] (CD 1% (w/v) in water) is 10 µg/mL. In series [1], the “Ability to dissolve cholesterol in water” value is “substantial ability”. Also, the “Concentrations of Cholesterol” value in series [1] (CD 10% (w/v) in water) was found to be 820 µg/mL. Besides, in series [1] (CD 20% (w/v) in water), the “Concentrations of Cholesterol” value amounted to 2980 µg/mL. Besides, in series [2], the “Ability to form soluble complex with cholesterol in aqueous solution” value (from here on “Ability to form soluble complex”) is reported as “only a weak ability” and the “Increase in Absorbance (600 nm) Due to Cholesterol Dissolved by CDs” value (from here on “Increase in Absorbance (600 nm) Due”) is given as 0.01. Further, the “Safety profile” value in the series with pterygium patients is “excellent safety profile”. For the same compound, in series [3] (2-HP-β-CD-treated group, N = 23), the “PSLQ scores compared to the baseline” value is “significant improvements”. Moreover, the “Magnitude of reduction in PSLQ ocular symptom score, dry eye vs no dry eye patients” value in series [3] (10%, pterygium patients with vs without dry eye condition) is reported as “statistically significant bigger”. Besides, in series [3] (setting [4]), the “PSLQ Average Ocular Symptom Score, Mean (SD)” value is recorded as 0.88 (0.81); the “PSLQ Average Quality of Life Impact Score, Mean (SD)” value is 0.57 (0.92); the “PSLQ Average Vision-Related Functioning Score, Mean” value was found to be 0.57; the “PSLQ Overall Average Score, Mean (SD)” value is 0.70 (0.66). For the same compound, in series [3] (setting [5]), the “PSLQ Average Ocular Symptom Score, Change from Baseline, Mean (SD)” value was −0.36 (0.69); the “PSLQ Average Quality of Life Impact Score, Change from Baseline, Mean (SD)” value is on record as −0.19 (0.39); the “PSLQ Average Vision-Related Functioning Score, Change from Baseline, Mean” value is on record as −0.27; the “PSLQ Overall Average Score, Change from Baseline, Mean (SD)” value (shortened to “PSLQ Overall Average Score, Change … (SD)”) is given as −0.28 (0.45). In series [3] (setting [6]), the “PSLQ Average Ocular Symptom Score, Change from Baseline, Mean (SD)” value is listed as −0.46 (0.71); the “PSLQ Average Quality of Life Impact Score, Change from Baseline, Mean (SD)” value is −0.19 (0.50); the “PSLQ Average Vision-Related Functioning Score, Change from Baseline, Mean” value was −0.48; the “PSLQ Overall Average Score, Change … (SD)” value is listed as −0.35 (0.51). Further, in series [3] (setting [7]), the “PSLQ Average Ocular Symptom Score, Change from Baseline, Mean (SD)” value is on record as −0.39 (0.84); the “PSLQ Average Quality of Life Impact Score, Change from Baseline, Mean (SD)” value was −0.17 (0.52); the “PSLQ Average Vision-Related Functioning Score, Change from Baseline, Mean” value is given as −0.43; the “PSLQ Overall Average Score, Change … (SD)” value is given as −0.30 (0.55). Also, in series [3] (setting [8]), the “PSLQ Average Ocular Symptom Score, Change from Baseline, Mean (SD)” value was −0.29 (0.79); the “PSLQ Average Quality of Life Impact Score, Change from Baseline, Mean (SD)” value is −0.13 (0.68); the “PSLQ Average Vision-Related Functioning Score, Change from Baseline, Mean” value is reported as −0.23; the “PSLQ Overall Average Score, Change … (SD)” value is listed as −0.20 (0.64). Further, in series [3] (setting [9]), the “PSLQ Average Ocular Symptom Score, Change from Baseline, Mean (SD)” value is −0.33 (0.90); the “PSLQ Average Quality of Life Impact Score, Change from Baseline, Mean (SD)” value was −0.15 (0.59); the “PSLQ Average Vision-Related Functioning Score, Change from Baseline, Mean” value is listed as −0.11; the “PSLQ Overall Average Score, Change … (SD)” value is −0.22 (0.73).
As to “sulfobutylated beta-cyclodextrin [SBE-BCD]”, the “Concentrations of Cholesterol” value was found to be 2 µg/mL in series [1] (CD 1% (w/v) in water), 30 µg/mL in series [1] (CD 10% (w/v) in water) and 150 µg/mL in series [1] (CD 20% (w/v) in water).
Take `OC[C@H]1O[C@@H]2O[C@H]3[C@H](O)[C@@H](O)[C@@H](O[C@H]4[C@H](O)[C@@H](O)[C@@H](O[C@H]5[C@H](O)[C@@H](O)[C@@H](O[C@H]6[C@H](O)[C@@H](O)[C@@H](O[C@H]7[C@H](O)[C@@H](O)[C@@H](O[C@H]8[C@H](O)[C@@H](O)[C@@H](O[C@H]1[C@H](O)[C@H]2O)O[C@@H]8CO)O[C@@H]7CO)O[C@@H]6CO)O[C@@H]5CO)O[C@@H]4CO)O[C@@H]3CO` [BCD, beta-cyclodextrin]: the “Ability to form soluble complex” value in series [2] was “do not form soluble complexes”.
Regarding `COC(=O)c1ccc2c(c1)NC(=O)/C2=C(\Nc1ccc(N(C)C(=O)CN2CCN(C)CC2)cc1)c1ccccc1` [Nintedanib, reference compound], the “PSLQ ocular symptom score, Nintedanib 0.2% vs Vehicle” value in series [3] (pterygium patients with dry eye condition) is recorded as “no statistically significant differences”.
For the compound random methyl-beta-cyclodextrin [M-BCD], the “Concentrations of Cholesterol” value was 150 µg/mL in series [1] (CD 1% (w/v) in water), 6030 µg/mL in series [1] (CD 10% (w/v) in water) and 14200 µg/mL in series [1] (CD 20% (w/v) in water). The “Ability to dissolve cholesterol in water” value in series [1] was “the best”.
As to `OC[C@H]1O[C@@H]2O[C@H]3[C@H](O)[C@@H](O)[C@@H](O[C@H]4[C@H](O)[C@@H](O)[C@@H](O[C@H]5[C@H](O)[C@@H](O)[C@@H](O[C@H]6[C@H](O)[C@@H](O)[C@@H](O[C@H]7[C@H](O)[C@@H](O)[C@@H](O[C@H]1[C@H](O)[C@H]2O)O[C@@H]7CO)O[C@@H]6CO)O[C@@H]5CO)O[C@@H]4CO)O[C@@H]3CO` [ACD, alpha-cyclodextrin], in series [2], the “Ability to form soluble complex” value is on record as “do not form soluble complexes” and the “Increase in Absorbance (600 nm) Due” value is 0.
Take “2-hydroxypropyl-alpha-cyclodextrin [HP-ACD, reference compound]”: in series [1], the “Ability to dissolve cholesterol in water” value is “no detectable cholesterol dissolving activity”.
Take `COC[C@H]1O[C@@H]2O[C@H]3[C@H](O)[C@@H](OC)[C@@H](O[C@H]4[C@H](O)[C@@H](OC)[C@@H](O[C@H]5[C@H](O)[C@@H](OC)[C@@H](O[C@H]6[C@H](O)[C@@H](OC)[C@@H](O[C@H]7[C@H](O)[C@@H](OC)[C@@H](O[C@H]8[C@H](O)[C@@H](OC)[C@@H](O[C@H]1[C@H](O)[C@H]2OC)O[C@@H]8COC)O[C@@H]7COC)O[C@@H]6COC)O[C@@H]5COC)O[C@@H]4COC)O[C@@H]3COC` [DM-BCD, heptakis (2,6-di-O-methyl)-beta-cyclodextrin]: the “Concentrations of Cholesterol” value came out at 190 µg/mL in series [1] (CD 1% (w/v) in water), 5130 µg/mL in series [1] (CD 10% (w/v) in water) and 10430 µg/mL in series [1] (CD 20% (w/v) in water). Further, the “Ability to dissolve cholesterol in water” value in series [1] is reported as “the best”. Besides, the “Ability to form soluble complex” value in series [2] was “strong ability”. In series [2], the “Increase in Absorbance (600 nm) Due” value is 0.336.
For `OC[C@H]1O[C@@H]2O[C@H]3[C@H](O)[C@@H](O)[C@@H](O[C@H]4[C@H](O)[C@@H](O)[C@@H](O[C@H]5[C@H](O)[C@@H](O)[C@@H](O[C@H]6[C@H](O)[C@@H](O)[C@@H](O[C@H]7[C@H](O)[C@@H](O)[C@@H](O[C@H]8[C@H](O)[C@@H](O)[C@@H](O[C@H]9[C@H](O)[C@@H](O)[C@@H](O[C@H]1[C@H](O)[C@H]2O)O[C@@H]9CO)O[C@@H]8CO)O[C@@H]7CO)O[C@@H]6CO)O[C@@H]5CO)O[C@@H]4CO)O[C@@H]3CO` [GCD, gamma-cyclodextrin], in series [2], the “Ability to form soluble complex” value was “do not form soluble complexes” and the “Increase in Absorbance (600 nm) Due” value is given as 0.
Take `OC[C@H]1O[C@H](O[C@H]2[C@H](O)[C@@H](O)[C@@H](OC[C@H]3O[C@@H]4O[C@H]5[C@H](O)[C@@H](O)[C@@H](O[C@H]6[C@H](O)[C@@H](O)[C@@H](O[C@H]7[C@H](O)[C@@H](O)[C@@H](O[C@H]8[C@H](O)[C@@H](O)[C@@H](O[C@H]9[C@H](O)[C@@H](O)[C@@H](O[C@H]%10[C@H](O)[C@@H](O)[C@@H](O[C@H]3[C@H](O)[C@H]4O)O[C@@H]%10CO)O[C@@H]9CO)O[C@@H]8CO)O[C@@H]7CO)O[C@@H]6CO)O[C@@H]5CO)O[C@@H]2CO)[C@H](O)[C@@H](O)[C@@H]1O` [6-AM-BCD, 6-O-alpha-maltosyl-beta-cyclodextrin, reference compound]: the figures for the “Concentrations of Cholesterol” value in series [1] (CD 1% (w/v) in water), in series [1] (CD 10% (w/v) in water) and in series [1] (CD 20% (w/v) in water) were 30 µg/mL, 2570 µg/mL and 3380 µg/mL, respectively. Moreover, the “Ability to dissolve cholesterol in water” value in series [1] was “about half lower”.
“2-hydroxypropyl-gamma-cyclodextrin [HP-GCD, reference compound]”: in series [1], the “Ability to dissolve cholesterol in water” value was “extremely low levels”. Also, the “Concentrations of Cholesterol” value stood at 3 µg/mL in series [1] (CD 10% (w/v) in water) and 11 µg/mL in series [1] (CD 20% (w/v) in water).
